Measured values from patent US20170057955A1, “Pyridopyrimidinone Compounds for Modulating the Catalytic Activity of Histone Lysine Demethylases (KDMs)” (Dong-A Socio Holdings Co., Ltd., priority 2015, published 2017).

Molecular target: T1, Recombinant human JARID1B/KDM5B (Homo sapiens, UniProt Q9UGL1)
T1 construct: purchased Active Motif 31432; host or cells: Sf9 insect cells
Test: LANCE Ultra TR-FRET JARID1B (KDM5B) demethylase inhibition assay
Type: biochemical
Settings: 0.1 uM of test-compounds, FLAG-JARID1B, 500 nM biotinylated H3K4me3 peptide substrate, 30 min at room temperature
Outline: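 FLAG-tagged JARID1B from Sf9 cells, pre-incubated 5 min with 0.1 uM compound (1% DMSO), then 500 nM biotinylated H3K4me3 peptide, 500 uM 2-OG, 25 uM Fe(II), 2 mM ascorbate in pH 7.5 Hepes buffer. After 30 min at room temperature, H3K4me2/1 product detected by TR-FRET (665/590 nm ratio).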

T1 sequence (Q9UGL1 whole entry): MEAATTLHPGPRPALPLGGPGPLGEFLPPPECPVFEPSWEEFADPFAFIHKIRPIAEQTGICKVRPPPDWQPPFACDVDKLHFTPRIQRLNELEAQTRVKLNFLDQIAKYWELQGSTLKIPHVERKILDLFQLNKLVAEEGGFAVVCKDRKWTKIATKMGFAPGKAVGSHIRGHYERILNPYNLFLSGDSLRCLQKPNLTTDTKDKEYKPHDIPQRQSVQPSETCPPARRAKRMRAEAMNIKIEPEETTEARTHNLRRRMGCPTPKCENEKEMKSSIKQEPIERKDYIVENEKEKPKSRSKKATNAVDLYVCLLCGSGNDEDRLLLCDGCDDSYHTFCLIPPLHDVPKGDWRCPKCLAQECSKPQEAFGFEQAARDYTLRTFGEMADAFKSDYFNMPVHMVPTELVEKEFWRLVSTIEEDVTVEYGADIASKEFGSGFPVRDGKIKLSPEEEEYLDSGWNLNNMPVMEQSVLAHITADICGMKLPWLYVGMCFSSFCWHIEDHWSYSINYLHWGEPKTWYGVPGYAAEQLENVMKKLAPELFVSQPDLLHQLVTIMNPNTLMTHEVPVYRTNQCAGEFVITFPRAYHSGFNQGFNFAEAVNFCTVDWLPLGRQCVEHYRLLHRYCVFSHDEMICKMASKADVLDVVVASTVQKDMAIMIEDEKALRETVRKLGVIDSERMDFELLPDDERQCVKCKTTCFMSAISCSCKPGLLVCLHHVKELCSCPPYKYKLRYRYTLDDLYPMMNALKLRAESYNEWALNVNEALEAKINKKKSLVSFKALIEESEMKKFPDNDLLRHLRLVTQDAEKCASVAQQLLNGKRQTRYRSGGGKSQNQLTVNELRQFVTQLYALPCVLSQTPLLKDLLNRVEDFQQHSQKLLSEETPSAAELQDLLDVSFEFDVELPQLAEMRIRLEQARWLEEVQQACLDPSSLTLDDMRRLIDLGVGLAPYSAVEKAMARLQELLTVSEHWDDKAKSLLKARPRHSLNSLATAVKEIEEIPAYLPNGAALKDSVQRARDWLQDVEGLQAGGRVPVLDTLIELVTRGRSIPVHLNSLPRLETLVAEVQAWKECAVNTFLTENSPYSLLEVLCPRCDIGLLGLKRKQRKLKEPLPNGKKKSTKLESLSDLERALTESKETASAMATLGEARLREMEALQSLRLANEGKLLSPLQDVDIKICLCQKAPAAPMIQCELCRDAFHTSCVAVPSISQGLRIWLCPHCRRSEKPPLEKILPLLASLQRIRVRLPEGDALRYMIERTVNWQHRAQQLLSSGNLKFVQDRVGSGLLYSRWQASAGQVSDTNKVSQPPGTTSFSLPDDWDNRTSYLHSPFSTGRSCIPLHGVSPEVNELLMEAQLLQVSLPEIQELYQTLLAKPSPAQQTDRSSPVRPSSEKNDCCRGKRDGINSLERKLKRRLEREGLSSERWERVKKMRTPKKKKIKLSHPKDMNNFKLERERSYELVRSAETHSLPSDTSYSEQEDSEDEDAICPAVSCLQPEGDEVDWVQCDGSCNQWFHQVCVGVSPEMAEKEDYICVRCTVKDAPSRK

Compound | inhibition at 0.1 µM [%]
COCCN1CCC(CNc2nc(-c3nccc4c(=O)[nH]c(COCc5ccccc5)nc34)cs2)CC1 [Compound 154, 2-((benzyloxy)methyl)-8-(2-(((1-(2-methoxyethyl)piperidin-4-yl)methyl)amino)thiazol-4-yl)pyrido[3,4-d]pyrimidin-4(3H)-one] | < 20
CN1CCC(Nc2nc(-c3nccc4c(=O)[nH]c(COCc5ccccc5)nc34)cs2)CC1 [Compound 155, 2-((benzyloxy)methyl)-8-(2-((1-methylpiperidin-4-yl)amino)thiazol-4-yl)pyrido[3,4-d]pyrimidin-4(3H)-one] | 20 to 50
O=c1[nH]c(COc2cccc(-c3ccccc3)c2)nc2c(-c3csc(NCCO)n3)nccc12 [Compound 156, 2-(([1,1′-biphenyl]-3-yloxy)methyl)-8-(2-((2-hydroxyethyl)amino)thiazol-4-yl)pyrido[3,4-d]pyrimidin-4(3H)-one] | 20 to 50
O=c1[nH]c(COc2ccc(Oc3ccccc3)cc2)nc2c(-c3csc(NCCO)n3)nccc12 [Compound 157, 8-(2-((2-hydroxyethyl)amino)thiazol-4-yl)-2-((4-phenoxyphenoxy)methyl) pyrido[3,4-d]pyrimidin-4(3H)-one] | < 20
CC(C)(c1ccccc1)c1ccc(OCc2nc3c(-c4csc(NCCO)n4)nccc3c(=O)[nH]2)cc1 [Compound 158, 8-(2-((2-hydroxyethyl)amino)thiazol-4-yl)-2-((4-(2-phenylpropan-2-yl)phenoxy)methyl)pyrido [3,4-d]pyrimidin-4(3H)-one] | < 20
O=c1[nH]c(COc2ccc(C3CCCC3)cc2)nc2c(-c3csc(NCCO)n3)nccc12 [Compound 159, 2-((4-cyclopentylphenoxy)methyl)-8-(2-((2-hydroxyethyl)amino)thiazol-4-yl)pyrido[3,4-d]pyrimidin-4(3H)-one] | < 20
O=C(c1ccccc1)c1ccc(OCc2nc3c(-c4csc(NCCO)n4)nccc3c(=O)[nH]2)cc1 [Compound 160, 2-((4-benzoylphenoxy)methyl)-8-(2-((2-hydroxyethyl)amino)thiazol-4-yl)pyrido[3,4-d]pyrimidin-4(3H)-one] | 20 to 50
O=c1[nH]c(CCc2ccccc2)nc2c(-c3csc(NCCO)n3)nccc12 [Compound 161, 8-(2-((2-hydroxyethyl)amino)thiazol-4-yl)-2-phenethylpyrido[3,4-d]pyrimidin-4(3H)-one] | 20 to 50
CN(C)CCNc1nc(-c2nccc3c(=O)[nH]c(CCc4ccccc4)nc23)cs1 [Compound 162, 8-(2-((2-(dimethylamino)ethyl)amino)thiazol-4-yl)-2-phenethylpyrido[3,4-d]pyrimidin-4(3H)-one] | 20 to 50
CN1CCC(Nc2nc(-c3nccc4c(=O)[nH]c(CCc5ccccc5)nc34)cs2)CC1 [Compound 163, 8-(2-((1-methylpiperidin-4-yl)amino)thiazol-4-yl)-2-phenethylpyrido[3,4-d]pyrimidin-4(3H)-one] | 20 to 50
O=c1[nH]c(CCc2ccccc2)nc2c(-c3csc(NC4CCN(Cc5ccccc5)CC4)n3)nccc12 [Compound 164, 8-(2-((1-benzylpiperidin-4-yl)amino)thiazol-4-yl)-2-phenethylpyrido[3,4-d]pyrimidin-4(3H)-one] | ≥ 50
Nc1nc(-c2nccc3c(=O)[nH]c(CCc4ccc(F)cc4)nc23)cs1 [Compound 165, 8-(2-aminothiazol-4-yl)-2-(4-fluorophenethyl)pyrido[3,4-d]pyrimidin-4(3H)-one] | 20 to 50
Nc1nc(-c2nccc3c(=O)[nH]c(CCCc4ccccc4)nc23)cs1 [Compound 166, 8-(2-aminothiazol-4-yl)-2-(3-phenylpropyl)pyrido[3,4-d]pyrimidin-4(3H)-one] | 20 to 50
O=c1[nH]c(-c2cc3ccccc3o2)nc2c(-c3csc(NCCO)n3)nccc12 [Compound 167, 2-(benzofuran-2-yl)-8-(2-((2-hydroxyethyl)amino)thiazol-4-yl)pyrido[3,4-d]pyrimidin-4(3H)-one] | 20 to 50
C[C@H](O)CNc1nc(-c2nccc3c(=O)[nH]c(-c4cc5ccccc5o4)nc23)cs1 [Compound 168, (S)-2-(benzofuran-2-yl)-8-(2-((2-hydroxypropyl)amino)thiazol-4-yl)pyrido[3,4-d]pyrimidin-4(3H)-one] | < 20
